For series [1], the system named is Rhipicephalus sanguineus. In words: Rhipicephalus sanguineus - in vitro contact tests with adult brown dog ticks. In kind it is in vivo. To be noted: application rate 5 μg/cm^2, after 48 h (dead or moribund). In a few lines:
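Test compound was dissolved in acetone p.a. (9 mg in 1 ml, then diluted), and 250 μl were spread evenly over the inner surface of 25 ml test tubes on an orbital shaker at 30 rpm for 2 h. Once the solvent evaporated, 5-10 adult Rhipicephalus sanguineus ticks were sealed in, kept dark at room temperature, and after 48 h placed on a 45-50° C. hotplate to score dead or moribund ticks.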

Series [2] has as its system Spodoptera frugiperda. As to the kind of experiment: Spodoptera frugiperda - spray test. It is filed as in vivo. The settings on record: foliar, 168 h, caterpillars on maize leaf discs, after 7 days, read-out: efficacy; for pest or weed control at 100 g/ha: application rate 100 g/ha. The procedure: Spodoptera frugiperda—Spray Test
(§1) Solvent: 78.0 parts by weight of acetone and 1.5 parts by weight of dimethylformamide
(§2) Emulsifier: alkylaryl polyglycol ether
(§3) To produce an appropriate active ingredient formulation, 1 part by weight of active ingredient is dissolved using the specified parts by weight of solvent and made up with water containing an emulsifier concentration of 1000 ppm until the desired concentration is attained. To produce further test concentrations, the preparation is diluted with emulsifier-containing water.
Leaf discs of maize (Zea mays) are sprayed with an active ingredient formulation of the desired concentration and, after drying, populated with caterpillars of the armyworm (Spodoptera frugiperda).
After 7 days, efficacy in % is determined. 100% means that all the caterpillars have been killed; 0% means that no caterpillars have been killed.

Series [3] can be described thus: logP determination by HPLC on a reversed-phase column (C18), EEC Directive 79/831 Annex V.A8. It is filed as physicochemical.
Series [4] has as its system Phaedon cochleariae. In words: Phaedon cochleariae - spray test. It is filed as in vivo. The settings on record: larvae on Chinese cabbage leaf discs, after 7 days. As to the method: Phaedon cochleariae—Spray Test
as §1, §2, §3
Discs of Chinese cabbage leaves (Brassica pekinensis) are sprayed with an active ingredient formulation of the desired concentration and, after drying, populated with larvae of the mustard beetle (Phaedon cochleariae).
After 7 days, efficacy in % is determined. 100% means that all the beetle larvae have been killed; 0% means that no beetle larvae have been killed.

Series [5] has as its system Musca domestica. In words: Musca domestica test. It is filed as in vivo. The settings on record: application rate 100 ppm; adult houseflies; kill after 2 days. In a few lines: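 Compound in DMSO, diluted with water, applied to a sugar-solution sponge; vessels hold 10 adult houseflies. Percent mortality scored after 2 days.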
Series [6] deals with Lucilia cuprina. As to the kind of experiment: Lucilia cuprina test. It is filed as in vivo. To be noted: application rate 100 ppm, L1 larvae in minced horsemeat, kill after 2 days; for pest or weed control at 100 ppm: Lucilia cuprina, 48 h, read-out: efficacy. In a few lines:
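About 20 L1 larvae placed on minced horsemeat treated with compound, formulated in DMSO and diluted with water to test concentration. Kill in % scored after 2 days (100% = all larvae dead, 0% = none).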

Series [7] deals with Boophilus microplus. In words: Boophilus microplus - injection test. The settings on record: application rate 20 μg/animal, injected into engorged adult female ticks, laying of fertile eggs, after 7 days; for pest or weed control at 0.02 mg: Rhipicephalus microplus, 168 h, read-out: efficacy. It is filed as in vivo. The essentials: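 Scoring was by fertile egg laying 7 days after injection, holding doubtful eggs until larvae hatched at about 42 days; 100% = no fertile eggs, 0% = all eggs fertile. Groups of 5 engorged adult female cattle ticks were each injected abdominally with 1 μl of compound in DMSO.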

Series [8] concerns Tetranychus urticae. In words: Tetranychus urticae - spray test, OP-resistant. In kind it is in vivo. The settings on record: foliar, 144 h, bean leaf discs, after 6 days, read-out: efficacy; for pest or weed control at 100 g/ha: application rate 100 g/ha. The procedure:
Tetranychus urticae—Spray Test, OP-Resistant
as §1, §2, §3
Discs of bean leaves (Phaseolus vulgaris) infested by all stages of the greenhouse red spider mite (Tetranychus urticae) are sprayed with an active ingredient formulation of the desired concentration.
After 6 days, efficacy in % is determined. 100% means that all the spider mites have been killed; 0% means that none of the spider mites have been killed.

For series [9], the system named is Ctenocephalides felis. As to the kind of experiment: Ctenocephalides felis - oral test. In kind it is in vivo. To be noted: application rate 100 ppm in citrated cattle blood, adult fleas, kill after 2 days; for pest or weed control at 100 ppm: Ctenocephalides felis, po, 48 h, read-out: efficacy. The essentials: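 About 20 unfed adult cat fleas fed through a parafilm membrane on citrated cattle blood containing compound, dosed from a DMSO stock. Kill in % scored after 2 days; 100% means all fleas dead.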

Series [10] deals with Boophilus microplus Parkhurst strain, SP-resistant. In words: Boophilus microplus - dip test. It is filed as in vivo. To be noted: application rate 100 ppm; dip of engorged adult female ticks; laying of fertile eggs, after 7 days. In a few lines:
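Adult engorged females of SP-resistant Parkhurst strain (8–10 per tube) fully immersed in compound diluted in water from a DMSO solution. Ticks then kept on filter discs in a climate-controlled room; efficacy scored from fertile egg laying at 7 days, with unclear eggs held about 42 days until hatch (100% = no fertile eggs).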

Series [11] deals with Ctenocephalides felis. In words: Ctenocephalides felis - in vitro contact tests with adult cat fleas. In kind it is in vivo. To be noted: application rate 5 μg/cm^2 (=500 g/ha), after 48 h (dead or moribund). The essentials:
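Acetone solution coated on test-tube inner walls (900 ppm gives 5 μg/cm^2). After drying, 5-10 adult cat fleas added and kept horizontal at room temperature and ambient humidity. At 48 h fleas knocked down; motionless or uncoordinated ones counted dead/moribund, giving % efficacy.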

The subject of series [12] is Amblyomma hebraeum. In words: Amblyomma hebraeum test (tick nymphs, immersion). The settings on record: application rate 100 ppm; tick nymphs immersed for one minute; kill after 42 days. In kind it is in vivo. In a few lines:
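Tick nymphs immersed for one minute in compound diluted in water from a DMSO concentrate, then held on filter paper in a Petri dish in a climate-controlled cabinet. Kill (%) scored after 42 days; 100% means all ticks dead, 0% none.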

The mark [13] stands for this setting: reversed-phase HPLC column (C18), HPLC, reversed-phase C18, acetonitrile/water with formic acid, 55° C., read-out: logP.
The mark [14] stands for this setting: Phaedon cochleariae, foliar, 168 h, application rate 100 g/ha, read-out: efficacy.
Setting [15] is: reversed-phase HPLC column (C18), HPLC-MS method a), Table I-T3; read-out: logP^a).
[16] abbreviates: reversed-phase HPLC column (C18), HPLC-MS method a); read-out: logP^a).

Read-outs that look alike come from different tables or passages of the source.

For `Cc1cc(C(F)(C(F)(F)F)C(F)(F)F)cc(C(F)(F)F)c1-n1cc(-c2ccc(Cl)c(C(=S)NC3CC3)c2)cn1` [I-T3-161, 2-chloro-N-cyclopropyl-5-[1-[2-methyl-4-[1,2,2,2-tetrafluoro-1-(trifluoromethyl)ethyl]-6-(trifluoromethyl)phenyl]pyrazol-4-yl]benzenecarbothioamide], the efficacy in [1] and in series [5] was 100% in each case. Moreover, the pest or weed control at 100 g/ha in series [2], in series [4] (setting [14]) and in [8] was 100% throughout. Further, the chromatographic logP was 5 in series [3] (setting [13]); 5 in series [3] (reversed-phase HPLC column (C18), HPLC-MS method a), reversed-phase column (C18); read-out: logP^a)); 5 in series [3] (reversed-phase HPLC column (C18), HPLC-MS, reversed-phase column (C18), read-out: log P). Besides, the pest or weed control at 100 ppm in series [6] and in series [9] was 100% each time. In addition, the pest or weed control at 0.02 mg in series [7] was determined as 100%.

Consider `O=C(NC1CC1)c1cc(-c2cc(-c3c(Cl)cc(C(F)(C(F)(F)F)C(F)(F)F)cc3Cl)on2)ccc1Cl` [I-T23-1, 2-chloro-N-cyclopropyl-5-[5-[2,6-dichloro-4-[1,2,2,2-tetrafluoro-1-(trifluoromethyl)ethyl]phenyl]isoxazol-3-yl]benzamide], for which the pest or weed control at 500 g/ha came to 100% in series [2] (application rate 500 g/ha); 100% in [4] (Phaedon cochleariae, foliar, 168 h, application rate 500 g/ha, read-out: efficacy); 100% in series [8] (application rate 500 g/ha). Further, the chromatographic logP in series [3] (setting [13]) is 4.96. For the same compound, the pest or weed control at 100 ppm in series [6] and in [9] was 100% each time.

With `Cc1cc(C(F)(C(F)(F)F)C(F)(F)F)cc(C(F)(F)F)c1-c1cc(-c2ccc(Cl)c(C(=O)NC3(C#N)CC3)c2)on1` [I-T22-7, 2-chloro-N-(1-cyanocyclopropyl)-5-[3-[2-methyl-4-[1,2,2,2-tetrafluoro-1-(trifluoromethyl)ethyl]-6-(trifluoromethyl)phenyl]isoxazol-5-yl]benzamide], the efficacy in series [1], in series [5], in [10] and in [11] was 100% throughout. Besides, the pest or weed control at 100 g/ha in series [2], in series [4] (setting [14]) and in series [8] was 100% throughout. Also, the chromatographic logP in series [3] (setting [13]) was 4.7. Besides, the pest or weed control at 100 ppm in series [6] and in series [9] was 100% each time. Besides, the pest or weed control at 0.02 mg in series [7] is 100%.

Regarding `Cc1cc(C(F)(C(F)(F)F)C(F)(F)F)cc(C)c1-c1cnn(-c2cnc(Cl)c(C(=O)NC3CC3)c2)c1` [I-T4-3, 2-chloro-N-cyclopropyl-5-[4-[2,6-dimethyl-4-[1,2,2,2-tetrafluoro-1-(trifluoromethyl)ethyl]phenyl]pyrazol-1-yl]pyridine-3-carboxamide], the pest or weed control at 100 g/ha in [2], in series [4] (setting [14]) and in series [8] was 100% in each case. Besides, the chromatographic logP in series [3] (setting [13]) was determined as 4.42. Further, the pest or weed control at 100 ppm in [6] and in series [9] was 100% each time.

With `O=C(NC1CC1)c1cc(-c2cnn(-c3c(F)cc(C(F)(F)F)cc3F)c2)ccc1Cl` [I-T3-48, 2-chloro-N-cyclopropyl-5-[1-[2,6-difluoro-4-(trifluoromethyl)phenyl]pyrazol-4-yl]benzamide], the pest or weed control at 100 g/ha in series [2] and in [4] (setting [14]) was 100% in each case. Besides, the chromatographic logP in series [3] (setting [13]), in series [3] (setting [15]) and in [3] (setting [16]) was 3.2 throughout. Moreover, the pest or weed control at 100 ppm in series [6] and in [9] was 100% each time.

Regarding `Cc1cc(C(F)(C(F)(F)F)C(F)(F)F)cc(C)c1-c1cnn(-c2ccc(Cl)c(C(=O)NC3CC3)c2)c1` [I-T4-1, N-cyclopropyl-2-chloro-5-[4-[2,6-dimethyl-4-[1,2,2,2-tetrafluoro-1-(trifluoromethyl)ethyl]phenyl]pyrazol-1-yl]benzamide], the pest or weed control at 100 g/ha in series [2], in series [4] (setting [14]) and in [8] was 100% in each case. Besides, the chromatographic logP in series [3] (setting [13]) is 4.74. Further, the pest or weed control at 100 ppm in [6] and in series [9] was 100% in each case.

A word on the log P: it is the decadic logarithm of the partition coefficient of the neutral form, usually between octanol and water. Read a high log P as a more lipophilic compound. Turning to `Cc1ncc(-c2cnn(-c3c(Cl)cc(C(F)(C(F)(F)F)C(F)(F)F)cc3C(F)(F)F)c2)cc1C(=O)NC1(C#N)CC1` [I-T3-125], the “log P” value in series [3] (HPLC-MS, reversed-phase column (C18)) stood at 3.8. Besides, the efficacy in series [4] (application rate 100 g/ha), in [5], in [6], in series [7], in [9] and in [12] was 100% throughout. Moreover, the efficacy in series [10] and in series [11] was 100% throughout.

Take `Cc1cc(C(F)(C(F)(F)F)C(F)(F)F)cc(C)c1-c1cc(-c2ccc(Cl)c(C(=O)NC3CC3)c2)on1` [I-T22-1, 2-chloro-N-cyclopropyl-5-[3-[2,6-dimethyl-4-[1,2,2,2-tetrafluoro-1-(trifluoromethyl)ethyl]phenyl]isoxazol-5-yl]benzamide]: the figures for the pest or weed control at 100 g/ha in series [2], in [4] (setting [14]) and in [8] were 100%, 100% and 90%, respectively. Besides, the chromatographic logP in series [3] (setting [13]) was 4.75. Also, the pest or weed control at 100 ppm in series [6] and in [9] was 100% throughout.

As to `COc1cc(C(F)(F)F)cc(F)c1-n1cc(-c2ccc(Cl)c(C(=O)NC3CC3)c2)cn1` [I-T3-50, 2-chloro-N-cyclopropyl-5-[1-[2-fluoro-6-methoxy-4-(trifluoromethyl)phenyl]pyrazol-4-yl]benzamide], the pest or weed control at 100 g/ha was 83% in series [2], 100% in series [4] (setting [14]) and 90% in series [8]. Besides, the chromatographic logP in series [3] (setting [13]), in series [3] (setting [15]) and in series [3] (setting [16]) was 3.1 each time. Further, the pest or weed control at 100 ppm in series [6] and in series [9] was 100% each time.

For the origin of these results see patent US9758485B2, “Compounds for controlling arthropods” (priority 2013, dated 2017).
